Here are results for twelve molecules from patent US8093393B2, “Cationic ceramides, and analogs thereof, and their use for preventing or treating cancer” (MUSC Foundation for Research Development, priority 2004, dated 2012).

pIC50: −log10 of the molar value. Converted amounts (≈) assume the structure as drawn. Read-outs that look alike come from different tables or passages of the source.

As a reminder, the pIC50 is the IC50 on a negative log10 scale, so that one unit is a factor of ten. As a reminder, the Solubility is the concentration that dissolves in the medium under given conditions.

For one data set, the system named is UM-SCC-22A cells. Description: MTT cell survival assay and isobologram studies. Format: cell-based, human. (Tetrazolium dyes change colour on reduction, which living cells bring about.)
The test system of data set [1] is MCF7 breast carcinoma cells. Description: Cell proliferation and viability, Trypan blue exclusion assay. It counts as cell-based. As to conditions: for inhibitory effect on MCF7 cell growth (in words): 48 h; for pIC50: 48 h treatment, read-out: IC50, inhibitory effect on MCF7 cell growth. Here is the method: FIGS. 5A-5F show the dose dependent effects of CCPS analogs on survival of MCF7 breast carcinoma cells in comparison to the activity of D-e-C6-ceramide, which is commonly used as a model of ceramide action. Cell proliferation and cell viability were determined by Trypan blue exclusion assay. These assays were performed using duplicate samples in two or three independent experiments.
Cell Proliferation: Cells were seeded into plates at a density of approx. 50% corresponding to 1×10^6 cells, in 10 ml of 10% FCS and after an over night incubation the cells were treated with LCL compounds at concentration 0-20 μM in ethanol (ethanol level was kept below 0.1%) and the changes in cell numbers after 48 h were determined and expressed as a percentage of the untreated controls.
Briefly, media was removed, cells were washed twice with PBS, detached using 1% Trypsin and centrifuged at 800 rpm. Cell pellets were resuspended in PBS and Trypan blue (Sigma Chemicals, St. Louis, Mo., USA) was added (1:1 dilution). Under light microscope, the percentage of unstained and stained cells was assessed.
To examine the anticancer activity of CCPS analogs of the invention, their inhibitory effect on MCF7 breast carcinoma cells were analyzed and compared to the activity of D-e-C6-ceramide, which is commonly used as a model of action for ceramides. Cell proliferation and cell viability were determined by Trypan blue exclusion assay.

A short description of data set [2]: Solubility of ceramides and ceramidoids in water.
Where [3] appears, read: Homo sapiens, UM-SCC-22A, MTT, read-out: IC50 of chemotherapeutic agents.
Setting [4] is: UM-SCC-22A, 48 hr, read-out: IC50, cell growth.
The mark [5] stands for this setting: UM-SCC-22A, 96 hr, DMEM, read-out: IC50, cell growth.

Description for UM-SCC-22A cells: Human head and neck cancer cell lines UM-SCC-1 (retromolar trigone/floor of the mouth), UM-SCC-12 (primary tumor of larynx), and UM-SCC-22A cells were obtained from clinical samples. Cells were grown in DMEM containing 10% FCS and 1% penicillin/streptomycin at 37° C. in 5% CO2.
MTT cell survival assay and isobologram studies. The concentrations of agents that inhibited cell growth by 50% (IC50) were determined from cell survival plots obtained by MTT. Triplicate wells were used for each treatment. The final concentration of DMSO (a solvent for conventional ceramides, GMZ and DOX) in the growth medium was less than 0.1% (v/v) which has no effect on cell growth and survival. Pyridinium ceramides were dissolved in sterile water or growth medium. In short, after cells (5-10×10^3/well) were seeded in 96-well-plates for 24 hr, they were treated with increasing concentrations of ceramide analogs for an additional 48 or 96 hr. For combination treatments, ceramides and chemotherapeutic agents (gemcitabine (GMZ) or doxorubicin (DOX)) were added to the growth medium simultaneously during treatment. Isobologram plots were then constructed using IC50 values of the two agents alone or in combination obtained from MTT assays. A straight line joining points on x- and y-axes represent the IC50 concentrations of two agents, and the points representing the IC50 concentrations of the combination of the two agents are represented as scatter plots on the same graphs. In general, the points that fall within the left of the straight line indicate synergism. The experiments were performed as triplicates in at least 3 independent experiments.
Human head and neck cancer cell lines UM-SCC-1 (retromolar trigone/floor of the mouth), UM-SCC-14A (SCC of anterior floor of the mouth), and UM-SCC-22A (SCC of hypopharynx) cells were obtained. Cells were grown in DMEM containing 10% FCS and 1% penicillin/streptomycin at 37° C. in 5% CO2.
MTT cell survival assay and isobologram studies. The concentrations of agents that inhibited cell growth by 50% (IC50) were determined from cell survival plots obtained by MTT assays. […] In general, the points that fall within the left of the straight line indicate synergism. The experiments were performed as triplicates in at least 3 independent experiments. Error bars represent standard deviations.

For the molecule `CC(=O)O[C@H]1C(=O)[C@@]2(C)[C@H]([C@H](OC(=O)c3ccccc3)[C@]3(O)C[C@H](OC(=O)[C@H](O)[C@@H](NC(=O)c4ccccc4)c4ccccc4)C(C)=C1C3(C)C)[C@]1(OC(C)=O)CO[C@@H]1C[C@@H]2O` [PAX, paclitaxel, reference compound], the pIC50 in the data set on UM-SCC-22A cells (setting [3]) is 4.00 to 6.00.
`CCCCCCCCCCCCCC=CC(O)C(CO)NC(=O)CCCCCCCCCCC[n+]1ccccc1` (stereo not drawn) [LCL89]: the pIC50 with UM-SCC-22A cells (setting [4]) was roughly 6.00; with UM-SCC-22A cells (setting [5]) it was roughly 6.52.
On to “L-erythro-2-N-[6′-(1″-Pyridinium)-hexanoyl]-sphingosine Bromide [LCL187]”, for which the “inhibitory effect on MCF7 cell growth (in words)” value (“inhibitory effect” below) in data set [1] is reported as “caused inhibitory effect on MCF7 cell growth”.
Regarding `CCCCCCCCCCCCC/C=C/[C@H](O)[C@H](CO)NC(=O)CCCCCCCCCCCCCCC[n+]1ccccc1.[Br-]` [LCL87, L-threo-2-N-[16′-(1″-Pyridinium)-hexadecanoyl]-sphingosine Bromide], the pIC50 with UM-SCC-22A cells (setting [4]) is roughly 6.00; in the data set on UM-SCC-22A cells (setting [5]) it was roughly 6.52. Further, the “inhibitory effect” value in data set [1] was “similar, concentration dependent (1.0-10.0 μM) inhibitory effect on cell growth”.
For the molecule `CN(Cc1cnc2nc(N)nc(N)c2n1)c1ccc(C(=O)N[C@@H](CCC(=O)O)C(=O)O)cc1` [MTX, methotrexate, reference compound], the pIC50 with UM-SCC-22A cells (setting [3]) is 6.60 to 7.00.
On to “D-threo-2-N-[6′-(1″-Pyridinium)-hexanoyl]-sphingosine Bromide [LCL272]”, for which the “inhibitory effect” value in data set [1] is given as “caused inhibitory effect on MCF7 cell growth”.
For the molecule `CCCCCCCCCCCCC/C=C/[C@@H](O)[C@H](CO)NC(=O)CCCCCCCCCCCCCCC` [C16-Cer, D-erythro-C16-ceramide, reference compound], in data set [2], the “Solubility at 37° C.” value worked out at 0.0003 mg/mL (≈ 0.558 µM) and the “Solubility at 37° C. ([mM])” value is “(0.0005) mM”.
Consider `CCCCCCCCCCCCC/C=C/[C@@H](O)[C@H](CO)NC(=O)c1ccc[n+](CCCCCCCC)c1.[Br-]` [LCL275, D-erythro-2-(1′-Octylnicotinoyl)-sphingosine Bromide], for which, in data set [2] (22° C.), the “Solubility at 22° C.” value worked out at 62 mg/mL and the “Solubility at 22° C. ([mM])” value was “(103) mM”. In data set [2], the “Solubility at 37° C.” value is 120 mg/mL and the “Solubility at 37° C. ([mM])” value is reported as “(200) mM”. In addition, the pIC50 in data set [1] (listed as LCL-275) was 4.82. Further, the negative logarithm of the IC50 (pIC50) in data set [1] was roughly 4.70.
Consider `CCCCCCCCCCCCC/C=C/[C@@H](O)[C@H](CO)NC(=O)CCCCC[n+]1ccc(C=Cc2ccc(N(C)C)cc2)cc1` [LCL186, D-erythro-2-N-[6′-[1″-[4′″-[(4″″-N,N-Dimethylamino)styryl]-pyridinium]-hexanoyl]]-sphingosine Bromide], for which the negative-log IC50 (pIC50) in data set [1] is roughly 5.40.
Consider `CCCCCCCCCCCCC/C=C/[C@@H](O)[C@H](CO)NC(C)=O` [C2-Cer, D-erythro-C2-ceramide, reference compound], for which, in data set [2], the “Solubility at 37° C.” value is on record as 0.01 mg/mL (≈ 29.3 µM) and the “Solubility at 37° C. ([mM])” value is listed as “(0.029) mM”. Besides, the “inhibitory effect” value in data set [1] was “inactive”.
`CCCCCCCCCCCCC/C=C/[C@@H](O)[C@H](CO)NC(=O)CCc1ccc[n+](CCCC)c1` [LCL277, D-erythro-2-N-[3′-[3″-(1″-Butyl)-pyridinium]-propionoyl]-sphingosine Bromide]: the pIC50 is 4.89 in data set [1] (listed as LCL-277) and 5.07 in data set [1].
As for `COc1cccc2c1C(=O)c1c(O)c3c(c(O)c1C2=O)C[C@@](O)(C(C)=O)C[C@@H]3O[C@H]1C[C@H](N)[C@H](O)[C@H](C)O1` [DNR, daunorubicin, reference compound], the negative-log IC50 (pIC50) in the data set on UM-SCC-22A cells (Homo sapiens, read-out: IC50 of chemotherapeutic agents) is 6.60 to 7.00.
